# Target: T1, human TGR5 (h-TGR5) (Homo sapiens, UniProt Q8TDU6)
# T1 construct: expressed in transfected cells
# T1 sequence (Q8TDU6 1-330): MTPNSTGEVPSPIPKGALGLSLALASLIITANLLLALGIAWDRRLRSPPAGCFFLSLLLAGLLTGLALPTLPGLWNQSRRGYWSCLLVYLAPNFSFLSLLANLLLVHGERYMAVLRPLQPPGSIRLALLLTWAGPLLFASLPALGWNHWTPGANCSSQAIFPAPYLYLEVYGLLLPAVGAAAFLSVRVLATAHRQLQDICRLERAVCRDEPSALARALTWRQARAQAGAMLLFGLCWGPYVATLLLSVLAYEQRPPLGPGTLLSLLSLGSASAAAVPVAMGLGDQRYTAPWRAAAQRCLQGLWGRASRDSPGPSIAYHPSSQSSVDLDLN
# Assay: TGR5/CRE-Luciferiase Assay (HEK 293 hTGR5/CRE-Luc cells)
# Type: cell-based
# Details: h-TGR5 CRE-Luc EC50, Table 1; read-out: CRE-Luc (EC50)
# Procedure: Compounds were serially diluted in DMEM containing 5% DMSO and 5 μL of compound or media alone was transferred to each well and plates were incubated for 6 hours. Following incubation, 30 μL of lysis/luciferase buffer was added to each well. The luciferase activity was then measured on the EnVision™ plate reader and the dose response data was analyzed using ActivityBase.
# In the following tables, EC50 values determined according to the TGR5 cAMP Assay described herein (cAMP); EC50 values determined according to the TGR5/CRE-Luciferiase Assay described herein (CRE-Luc). […] The following compounds in Tables 1 and 2 were made by using procedures described in the above Schemes and Examples, and, where applicable, by making any necessary substitutions of known materials that one skilled in the art would ordinarily understand how to do.
row,EC50,Compound
1,100 to 1000 nM,"COc1ccc(C(C)(C)c2cnc(SCc3c(F)cccc3C(=O)O)n2-c2ccc(F)cc2)cc1OC [2-({[5-{1-[3,4-bis(methyloxy)phenyl]-1-methylethyl}-1-(4-fluorophenyl)-1H-imidazol-2-yl]thio}methyl)-3-fluorobenzoic acid]"
2,1000 to 10000 nM,"CC(C)(c1ccc(Cl)c(Cl)c1)c1cnc(COCc2ccc(F)cc2Cl)n1-c1ccc(F)cc1 [2-({[(2-chloro-4-fluorophenyl)methyl]oxy}methyl)-5-[1-(3,4-dichlorophenyl)-1-methylethyl]-1-(4-fluorophenyl)-1H-imidazole]"
3,1000 to 10000 nM,COc1cc(C(C)(C)c2cnc(SCC3CCN(CCO)CC3)n2-c2ccc(F)cc2)ccc1Cl [2-[4-({[5-{1-[4-chloro-3-(methyloxy)phenyl]-1-methylethyl}-1-(4-fluorophenyl)-1H-imidazol-2-yl]thio}methyl)piperidin-1-yl]ethanol]
4,100 to 1000 nM,CC(C)(Oc1ccc(C(C)(C)c2cnc(SCc3ccc(F)cc3Cl)n2-c2ccc(F)cc2)cc1Cl)C(=O)O [2-[(2-chloro-4-{1-[2-{[(2-chloro-4-fluorophenyl)methyl]thio}-1-(4-fluorophenyl)-1H-imidazol-5-yl]-1-methylethyl}phenyl)oxy]-2-methylpropanoic acid]
5,100 to 1000 nM,"CCN(CC)CCOc1cc(C(C)(C)c2cnc(SCc3c(F)cccc3Cl)n2-c2ccc(F)cc2)ccc1Cl [2-[(2-chloro-5-{1-[2-{[(2-chloro-6-fluorophenyl)methyl]thio}-1-(4-fluorophenyl)-1H-imidazol-5-yl]-1-methylethyl}phenyl)oxy]-N,N-diethylethanamine]"
6,1000 to 10000 nM,"CN(C)CCOc1ccc(C(C)(C)c2cnc(SCc3c(F)cccc3Cl)n2-c2ccc(F)cc2)cc1 [2-[(4-{1-[2-{[(2-chloro-6-fluorophenyl)methyl]thio}-1-(4-fluorophenyl)-1H-imidazol-5-yl]-1-methylethyl}phenyl)oxy]-N,N-dimethylethanamine]"
7,100 to 1000 nM,CC(C)(c1ccc(OCCO)cc1)c1cnc(SCc2c(F)cccc2Cl)n1-c1ccc(F)cc1 [2-[(4-{1-[2-{[(2-chloro-6-fluorophenyl)methyl]thio}-1-(4-fluorophenyl)-1H-imidazol-5-yl]-1-methylethyl}phenyl)oxy]ethanol]
8,1000 to 10000 nM,"CC(C)(c1ccc(Cl)c(Cl)c1)c1cnc(/C=C/c2c(F)cccc2Cl)n1-c1ccc(F)cc1 [2-[(E)-2-(2-chloro-6-fluorophenyl)ethenyl]-5-[1-(3,4-dichlorophenyl)-1-methylethyl]-1-(4-fluorophenyl)-1H-imidazole]"
9,100 to 1000 nM,"CC(C)(c1ccc(Cl)c(Cl)c1)c1cnc(SCc2c(F)cccc2C(=O)O)n1-c1ccc(F)cc1 [2-[({5-[1-(3,4-dichlorophenyl)-1-methylethyl]-1-(4-fluorophenyl)-1H-imidazol-2-yl}thio)methyl]-3-fluorobenzoic acid]"
10,100 to 1000 nM,"CC(C)(c1ccc(Cl)c(Cl)c1)c1cnc(SCc2ccc(F)cc2C(N)=O)n1-c1ccc(F)cc1 [2-[({5-[1-(3,4-dichlorophenyl)-1-methylethyl]-1-(4-fluorophenyl)-1H-imidazol-2-yl}thio)methyl]-5-fluorobenzamide]"
11,100 to 1000 nM,"CC(C)(c1ccc(Cl)c(Cl)c1)c1cnc(SCc2ccc(F)cc2S(N)(=O)=O)n1-c1ccc(F)cc1 [2-[({5-[1-(3,4-dichlorophenyl)-1-methylethyl]-1-(4-fluorophenyl)-1H-imidazol-2-yl}thio)methyl]-5-fluorobenzenesulfonamide]"
12,100 to 1000 nM,"CC(C)(c1ccc(Cl)c(Cl)c1)c1cnc(SCc2ccc(F)cc2C(=O)O)n1-c1ccc(F)cc1 [2-[({5-[1-(3,4-dichlorophenyl)-1-methylethyl]-1-(4-fluorophenyl)-1H-imidazol-2-yl}thio)methyl]-5-fluorobenzoic acid]"
13,100 to 1000 nM,"CC(C)(c1ccc(Cl)c(Cl)c1)c1cnc(SCc2ccc(F)cc2C#N)n1-c1ccc(F)cc1 [2-[({5-[1-(3,4-dichlorophenyl)-1-methylethyl]-1-(4-fluorophenyl)-1H-imidazol-2-yl}thio)methyl]-5-fluorobenzonitrile]"
14,1000 to 10000 nM,"CC(C)(c1ccc(Cl)c(Cl)c1)c1cnc(COc2ccc(C(N)=O)c(Cl)c2)n1-c1ccc(F)cc1 [2-chloro-4-[({5-[1-(3,4-dichlorophenyl)-1-methylethyl]-1-(4-fluorophenyl)-1H-imidazol-2-yl}methyl)oxy]benzamide]"
15,100 to 1000 nM,"CC(C)(c1ccc(Cl)c(Cl)c1)c1cnc(SCc2ccc(C(N)=O)c(Cl)c2)n1-c1ccc(F)cc1 [2-chloro-4-[({5-[1-(3,4-dichlorophenyl)-1-methylethyl]-1-(4-fluorophenyl)-1H-imidazol-2-yl}thio)methyl]benzamide]"
16,1000 to 10000 nM,"CC(C)(c1ccc(Cl)c(Cl)c1)c1cnc(SCc2ccc(C(=N)N)c(Cl)c2)n1-c1ccc(F)cc1 [2-chloro-4-[({5-[1-(3,4-dichlorophenyl)-1-methylethyl]-1-(4-fluorophenyl)-1H-imidazol-2-yl}thio)methyl]benzenecarboximidamide]"
17,100 to 1000 nM,"CC(C)(c1ccc(Cl)c(Cl)c1)c1cnc(SCc2ccc(C#N)c(Cl)c2)n1-c1ccc(F)cc1 [2-chloro-4-[({5-[1-(3,4-dichlorophenyl)-1-methylethyl]-1-(4-fluorophenyl)-1H-imidazol-2-yl}thio)methyl]benzonitrile]"
18,100 to 1000 nM,"CC(C)(c1ccc(Cl)c(Cl)c1)c1cnc(COc2ccc(Cl)c(S(N)(=O)=O)c2)n1-c1ccc(F)cc1 [2-chloro-5-[({5-[1-(3,4-dichlorophenyl)-1-methylethyl]-1-(4-fluorophenyl)-1H-imidazol-2-yl}methyl)oxy]benzenesulfonamide]"
19,< 100 nM,"CC(C)(c1ccc(Cl)c(Cl)c1)c1cnc(SCc2ccc(Cl)c(C(N)=O)c2)n1-c1ccc(F)cc1 [2-chloro-5-[({5-[1-(3,4-dichlorophenyl)-1-methylethyl]-1-(4-fluorophenyl)-1H-imidazol-2-yl}thio)methyl]benzamide]"
20,1000 to 10000 nM,"CC(C)(c1ccc(Cl)c(Cl)c1)c1cnc(SCc2ccc(Cl)c(C(=N)N)c2)n1-c1ccc(F)cc1 [2-chloro-5-[({5-[1-(3,4-dichlorophenyl)-1-methylethyl]-1-(4-fluorophenyl)-1H-imidazol-2-yl}thio)methyl]benzenecarboximidamide]"
21,100 to 1000 nM,"CC(C)(c1ccc(Cl)c(Cl)c1)c1cnc(SCc2ccc(Cl)c(C(=O)O)c2)n1-c1ccc(F)cc1 [2-chloro-5-[({5-[1-(3,4-dichlorophenyl)-1-methylethyl]-1-(4-fluorophenyl)-1H-imidazol-2-yl}thio)methyl]benzoic acid]"
22,100 to 1000 nM,CC(C)(c1ccc(Cl)c(S(N)(=O)=O)c1)c1cnc(SCc2ccc(Cl)c(-c3nnn[nH]3)c2)n1-c1ccc(F)cc1 [2-chloro-5-{1-[2-({[4-chloro-3-(1H-tetrazol-5-yl)phenyl]methyl}thio)-1-(4-fluorophenyl)-1H-imidazol-5-yl]-1-methylethyl}benzenesulfonamide]
23,< 100 nM,CC(C)(c1ccc(Cl)c(O)c1)c1cnc(SCc2c(F)cccc2Cl)n1-c1ccc(F)cc1 [2-chloro-5-{1-[2-{[(2-chloro-6-fluorophenyl)methyl]thio}-1-(4-fluorophenyl)-1H-imidazol-5-yl]-1-methylethyl}phenol]
24,1000 to 10000 nM,"CC(c1ncc(C(C)(C)c2ccc(Cl)c(Cl)c2)n1-c1ccc(F)cc1)S(=O)(=O)c1ccc(F)cc1Cl (stereo not drawn) [2-{1-[(2-chloro-4-fluorophenyl)sulfonyl]ethyl}-5-[1-(3,4-dichlorophenyl)-1-methylethyl]-1-(4-fluorophenyl)-1H-imidazole]"

# Reference: patent publication US8785488B2 (Exelixis Patent Company LLC, priority 2009, dated 2014)
